Experiment [1] in a line: DSC of treated unilamellar vesicles. The following applies: POPE:POPG 85:15 vesicles. On the procedure:
POPE (1-palmitoyl-2-oleoyl-phosphatidylethanolamine) and POPG (1-palmitoyl-2-oleoyl-phosphatidylglycerol) were purchased as chloroform stocks from Avanti Polar Lipids. POPE and POPG were mixed to a molar ratio of 85:15 and dried under a gentle stream of nitrogen. The lipid cake obtained was further desiccated for overnight to obtain a thin lipid film. Rehydration of the dried film was carried out by adding 25 mM Tris, 150 mM NaCl, pH 7.5, to a concentration of 4.3 mg/mL, followed by incubation at 45° C. for 2 hrs, under constant stirring using a magnetic stirrer at around 300 rpm. To prepare the unilamellar vesicles, the vesicles suspension was repeatedly extruded through a polycarbonate membrane of 100 nm pores (21 times) at 45° C. The extruded vesicle sample was kept at 4° C. till further use. The vesicle solution was diluted to 0.86 mg/mL with buffer (25 mM Tris, 150 mM NaCl, pH 7.5) or the COE solution (25 mM Tris, 150 mM NaCl, pH 7.5) before the DSC measurements.
Unilamellar vesicles composed of 1-palmitoyl-2-oleoylphosphatidylethanolamine (POPE) and 1-palmitoyl-2-oleoylphosphatidylglycero (POPG) in a molar ratio of 85:15 were prepared in accordance to the general method “Preparation of Small Unilamellar Vesicles” and were used as a generic bacterial model membrane (G. J. Gabriel, et al., Mater. Sci. Eng. R 2007, 57, 28-64).
When subjected to DSC, the main gel-to-liquid-crystal transition peaks broadened after incubation with 8 μg mL^−1 of COE-D8 (FIG. 7a). For COE-D6, a higher concentration (16 μg mL^−1) was needed to change the initial trace (FIG. 7b). […] The perturbation to the cooperative transition of the lamellar phase reflects varying degrees of membrane intercalation. This observation correlates well with solubility and the alkyl chain length (Table 1a). Due to its lower aqueous solubility, COE-D8 is likely to partition more readily into hydrophobic domains of the lipid bilayer, leading to the weakened phase transition observed in the vesicles.

In the next experiment the test system is E. coli K12. Description: Cellular uptake by E. coli K12 (absorption spectroscopy). Format: cell-based, Escherichia coli. The following applies: for Uptake by E. coli K12: 10 μg/mL COE in PBS, OD=0.5, 2 hrs, room temperature; for Uptake by E. coli K12 at 4° C.: 10 μg/mL COE, 2 hrs, 4° C. (below membrane phase transition temperature). On the procedure: The relative membrane affinity of COE-D4, COE-D6 and COE-D8 was estimated from the quantity taken up by cells using absorption spectroscopy. After cultures of E. coli K12 were grown in MHB at 37° C., the cells were harvested by centrifugation (6000 rpm, 5 min) and washed twice with PBS solution (pH=7.2). The cells were then resuspended in PBS and with the density adjusted to OD=1.0. Thereafter, 5 mL of this cell suspension was mixed with an equal volume of 20 μg/mL of COE in PBS to achieve a final concentration of 10 μg/mL (in triplicates). After exposure to COEs for 2 hrs at room temperature and with shaking (200 rpm), the cells were removed by centrifugation and the supernatant was collected for absorbance scans to quantify the remaining COE in the supernatant. The uptake quantity was estimated by comparing the absorbance of the supernatant to the corresponding control COE solution (i.e. 10 μg/mL in PBS). The procedure for uptake measurements at the lower temperature is similar to the one described above, but with the exposure to COEs and centrifugation occurring at 4° C. instead of room temperature
The effect of molecular structures of the COEs on relative membrane affinity, estimated from the amount taken up by E. coli K12, was measured by absorption spectroscopy (FIG. 8a-c). These experiments utilised cell suspensions (OD=0.5) incubated for 2 hrs with 10 μg mL^−1 of various COE. Cells were removed by centrifugation, and the amount of uncomplexed COE was determined from the optical absorption spectra. The longest molecule, COE-D8, achieved the highest uptake in bacteria (72%). In contrast, only 3% of COE-D4 was absorbed while the uptake for COE-D6 was 16% (Table 1a).
Parallel experiments were carried out at 4° C. […] As a result of the reduced fluidity of cellular membrane at lower temperature, the uptake decreased to around 1% for COE-D4, 5% for COE-D6, and 34% for COE-D8.

For experiment [2], the system named is Candida albicans ATCC 90028. Description: Single-dose growth inhibition, Ca. Format: cell-based. Here is the method: Growth inhibition of C. albicans was determined by measuring the absorbance at 530 nm (OD530), while the growth inhibition of C. neoformans was determined by measuring the difference in absorbance between 600 and 570 nm (OD600-570), after the addition of resazurin (0.001 wt. % final concentration) and incubation at 35° C. for additional 2 hrs. The absorbance was measured using a Biotek Synergy HTX plate reader. The relative growth inhibition was calculated for each well, relative to that determined from a negative control (media only) and positive control (bacteria without inhibitors) on the same plate as references. A single dose of 32 μg/mL of COE (final concentration) was used for each test.
Percentage growth inhibition of an individual sample was calculated based on growth in a reference well determined from negative controls (media only) and positive controls (bacterial/fungal media without inhibitors). Negative inhibition values indicate that the growth rate (or OD600) is higher compared to the reference growth (bacteria/fungi only, set to 0% inhibition). The growth rates for all bacteria and fungi may vary at −/+10%, which were within the reported normal distribution of bacterial/fungal growth. Any significant variations (or outliers/hits) were identified by the modified Z-Score, and the active compounds were selected by a combination of inhibition values and Z-Score.
A M(i) value of >|2.5| (absolute) would classify the sample as outliers or hits. Active samples were denoted as compounds with inhibition values equal to or above 80% and absolute Z-Score above |2.5| for either replicate (n=2 on different plates). Partial active samples were denoted as compounds with inhibition values from 50% to <80%, or absolute Z-Score below |2.5|.

[3] abbreviates: ATCC90028, read-out: Growth inhibition Ca.
[4] abbreviates: ATCC90028, 32 μg/mL single dose, n=2, read-out: Growth inhibition Ca.

Structures are written as SMILES. Where “and” joins values, the source holds several entries; their conditions need not be identical. Identical values can stand only once. Like-named read-outs stand apart in the source and are kept apart here.

Broadly, the inhibition is the change of the read-out against control, counted positive when it falls. As to `C[N+](C)(C)CCCCOc1ccc(/C=C/c2ccc(OCCCC[N+](C)(C)C)cc2)cc1` [COE-D4], the “Concentration needed to change the gel-to-liquid-crystal transition peak (DSC)” value in experiment [1] is greater than 32 µg/mL. In addition, in the experiment with E. coli K12, the “Uptake by E. coli K12” value is 3% and 3 ± 2%; the “Uptake by E. coli K12 at 4° C.” value is “around 1%”. For the same molecule, the inhibition at 32 µg/mL in experiment [2] (setting [3]) was less than 50%.

For `C[N+](C)(C)CCCCCCOc1ccc(/C=C/c2ccc(OCCCCCC[N+](C)(C)C)cc2)cc1` [COE-D6], in experiment [1], the “Concentration needed to change the gel-to-liquid-crystal transition peak (DSC)” value was 16 µg/mL. Further, in the experiment on E. coli K12, the “Uptake by E. coli K12” value was 16% and 16 ± 3%; the “Uptake by E. coli K12 at 4° C.” value is roughly 5%. For the same molecule, in experiment [2] (setting [3]), the inhibition at 32 µg/mL is greater than 80%.

Consider `C[N+](C)(C)CCCCCCCCOc1ccc(/C=C/c2ccc(OCCCCCCCC[N+](C)(C)C)cc2)cc1` [COE-D8], for which, in experiment [1], the “Concentration needed to change the gel-to-liquid-crystal transition peak (DSC)” value was 8 µg/mL. In the experiment with E. coli K12, the “Uptake by E. coli K12” value was 72% and 72 ± 5%; the “Uptake by E. coli K12 at 4° C.” value was roughly 34%. Also, the “Cell affinity relative to COE-D4” value in the experiment with E. coli K12 (E. coli K12) was 30 times. Moreover, the inhibition at 32 µg/mL in experiment [2] (setting [3]) was greater than 80%.

On to `CN(C)CC[N+](C)(C)CCCCCCOc1ccc(/C=C/c2ccc(OCCCCCC[N+](C)(C)CCN(C)C)cc2)cc1` [COE-D62N], for which the “Uptake by E. coli K12” value with E. coli K12 was found to be 11±2%. The inhibition at 32 µg/mL in experiment [2] (setting [4]) was greater than 80%.

In the case of `CN(C)CC[N+](C)(C)CCCCCCCCOc1ccc(/C=C/c2ccc(OCCCCCCCC[N+](C)(C)CCN(C)C)cc2)cc1` [COE-D82N], the “Uptake by E. coli K12” value in the experiment on E. coli K12 stood at 76±3%. Also, the inhibition at 32 µg/mL in experiment [2] (setting [4]) was greater than 80%.

The values are drawn from US12157713B2, “Conjugated oligoelectrolytes as antimicrobial agents” (Nanyang Technological University, priority 2018, dated 2024).
